In US20230203055A1, “FUSED RING COMPOUND AND APPLICATION THEREOF IN MEDICINE” (Betta Pharmaceuticals Co., LTD, priority 2020, published 2023):
Where two headings read alike, the source gives them in different places.

Legend:
H358 cells = assay: Detection of cell proliferation inhibition, H358 (Cell-titer Glo, 96 h); type: cell-based
Protocol: H358 cells were plated in 96-well ultra-low adsorption plates at 2000 cells and 190 µL/well. After overnight incubation, compound solutions of gradient concentrations were prepared, and 10 µL of the DMSO solution of each concentration of the compound to be tested was added to the cells in each well. Compound final concentrations were 10000, 3333.3, 1111.1, 370.4, 123.5, 41.2, 13.7, 4.6, 1.5, 0 nM (all final concentrations of DMSO were 0.25%). Incubate at 37° C., 5% CO2 for 96 h. Add 50 µL of Cell-titer Glo working solution to each well, incubate at room temperature for 10 min after shaking and mixing, read the Luminescence luminescence value with a multi-function microplate reader, and convert the luminescence value reading into the inhibition percentage:
Percent Inhibition = (Max-Reading)/(Max-Min)* 100. • “Max” is the DMSO control, • “Min” is the cell-free control.
Curve fitting was performed with Graphpad Prism software and IC50 values were obtained. See Table 1 for IC50 data on H358 cell inhibition by example compounds.

MIA PaCa-2 cells = assay: Detection of cell proliferation inhibition, MIA PaCa-2 (Cell-titer Glo, 96 h); type: cell-based
Protocol: MIA PaCa-2 cells were plated in a 96-well ultra-low adsorption plate at 600 cells and 160 µL/well. After overnight incubation, compound solutions with gradient concentrations were prepared, and 40 µL of DMSO solutions of the compounds to be tested were added to each well of cells respectively. Compound final concentrations were 10000, 2000, 400, 80, 16, 3.2, 0.64, 0.12, 0.025, 0 nM (all final concentrations of DMSO were 0.25%). Incubate at 37° C., 5% CO2 for 96 h. Add 50 µL of Cell-titer Glo working solution to each well, shake and mix well, incubate at room temperature for 10 min, read the Luminescence luminescence value with a multi-function microplate reader, and convert the luminescence value reading into inhibition percentage: Percent Inhibition = (Max-Reading)/(Max-Min)* 100. • “Max” is the DMSO control; • “Min” is the cell-free control.
Curve fitting was performed with Graphpad Prism software and IC50 values were obtained. See Table 1for IC50 data for the inhibition of MIA PaCa-2 cells by the compounds of the examples.

[1] = Homo sapiens, NCI-H358, read-out: IC50 (nM) H358
[2] = Homo sapiens, read-out: IC50 (nM) MIA PaCa-2
[3] = Homo sapiens, read-out: IC50 MIA PaCa-2

Compound	IC50 (H358 cells; read-out: IC50 (nM) H358) [nM]	IC50 (MIA PaCa-2 cells; read-out: IC50 (nM) MIA PaCa-2) [nM]	IC50 (H358 cells; [1]) [nM]	IC50 (MIA PaCa-2 cells; [2]) [nM]	further results
10-((S)-4-(Acryloyl-2-Methylpiperazin-1-yl)-8-Fluoro-13-(2-Isopropyl-4-Methyl) Pyridin-3-yl)-2,3-Dihydrobenzo [4,5] Oxodipine [3,2-h] Quinolin-12(13H)One [Example 7]	137	70			
C=CC(=O)N1CCN(c2nc(=O)n(-c3c(C)ccnc3C(C)C)c3c4c(c(F)cc23)-c2ccccc2CO4)[C@@H](C)C1 [Example 1]	491	90.2			
C=CC(=O)N1CCN(c2nc(=O)n(-c3c(C)ccnc3C(C)C)c3c(F)c4c(cc23)OCc2ccccc2-4)[C@@H](C)C1 [Example 2]	295	122			
C=CC(=O)N1CCN(c2nc(=O)n(-c3c(C)ccnc3C(C)C)c3c4c(c(F)cc23)-c2c(F)cccc2CO4)[C@@H](C)C1 [Example 3]	78	< 50			
C=CC(=O)N1CCN(c2nc(=O)n(-c3c(C)ccnc3C(C)C)c3c(F)c4c(cc23)OCc2cccc(F)c2-4)[C@@H](C)C1 [Example 4, (S)-8-(Acryloyl-2-Methylpiperazin-1-yl)-1,12-Difluoro-11-(2-Isopropyl-4-Methylpyridin-3-yl)-5H-Isochromene[3,4-g] Quinazolin-10(11H)-One]	191	63			
C=CC(=O)N1CCN(c2nc(=O)n(-c3c(C)ccnc3C(C)C)c3c4c(c(F)cc23)-c2c(Cl)cccc2CO4)[C@@H](C)C1 [Example 5, (S)-1-(Acryloyl-2-Methylpiperazin-1-yl)-10-Chloro-11-Fluoro-4-(2-Isopropyl-4-Methylpyridin-3-yl)-4H-Isochromene[4,3-h] Quinazolin-3(6H)-One]	115	< 50			
C=CC(=O)N1CCN(c2nc(=O)n(-c3c(C)ccnc3C(C)C)c3c(F)c4c(cc23)OCc2cccc(Cl)c2-4)[C@@H](C)C1 [Example 6, (S)-8-(Acryloyl-2-Methylpiperazin-1-yl)-1-Chloro-12-Fluoro-11-(2-Isopropyl-4-Methylpyridin-3-yl)-5 H-Isochromene[3,4-g] Quinazolin-10(11 H)-one]	496	272			
C=CC(=O)N1CCN(c2nc(=O)n(-c3c(C)ccnc3C(C)C)c3c(F)c4c(cc23)OCCc2ccccc2-4)[C@@H](C)C1 [Example 8]			155	85	
C=CC(=O)N1CCN(c2nc(=O)n(-c3c(C)ccnc3C(C)C)c3c4c(c(F)cc23)-c2c(O)cccc2CO4)[C@@H](C)C1 [Example 9, (S)(Acryloyl-2-methylpiperazinyl)-11-fluoro-10-hydroxy-4-(2-isopropyl-4-methylpyridin-3-yl) -4 H-isochromene[4,3-h] quinazolin-3(6 H)-one]					IC50 (H358 cells; Homo sapiens, NCI-H358, read-out: IC50 H358): > 10000 nM; IC50 (MIA PaCa-2 cells; [3]): > 10000 nM
C=CC(=O)N1CCN(c2nc(=O)n(-c3c(C)ccnc3C(C)C)c3c(F)c4c(cc23)OCc2cccc(O)c2-4)[C@@H](C)C1 [Example 10, (S)-8-(Acryloyl-2-Methylpiperazin-1-yl)-12-Fluoro-1-Hydroxy-1l-(2-Isopropyl-4-Methylpyridin-3-yl)-5H-Isochromene[3,4-g]Quinazolin-10(11H)-One]			3870	3110	
C=CC(=O)N1CCN(c2nc(=O)n(-c3c(C)ccnc3C(C)C)c3c4c(c(F)cc23)-c2c(cccc2OC)CO4)[C@@H](C)C1 [Example 11, (S)-1-(Acryloyl-2-Methylpiperazin-1-yl)-l1-Fluoro-10-Methoxy-4-(2-Isopropyl-4-Methylpyridin-3-yl)-4H-Isochromene[4,3-h] Quinazolin-3(6H)-one]			2040	964	
C=CC(=O)N1CCN(c2nc(=O)n(-c3c(C)ccnc3C(C)C)c3c(F)c4c(cc23)OCc2cccc(OC)c2-4)[C@@H](C)C1 [Example 12, (S)-8-(Acryloyl-2-Methylpiperazin-1-yl)-12-Fluoro-1-Methoxy-11-(2-Isopropyl-4-Methylpyridin-3-yl)-5H-Isochromene[3,4-g] Quinazolin-10(11H)-One]			3180		IC50 (MIA PaCa-2 cells; [3]): > 2000 nM
C=CC(=O)N1CCN(c2nc(=O)n(-c3c(C)ccnc3C(C)C)c3c4c(c(Cl)cc23)-c2c(F)cccc2CO4)[C@@H](C)C1 [Example 13, (S)-1-(4-Acryloyl-2-Methylpiperazin-1-yl)-11-Chloro-10-Fluoro-4-(2-Isopropyl-4-Methylpyridin-3-yl)-4H-Isochromene[4,3-h] Quinazolin-3(6H)-One]	< 50	< 50			
C=CC(=O)N1CCN(c2nc(=O)n(-c3c(C)ccnc3C(C)C)c3c4c(c(C=C)cc23)-c2c(F)cccc2CO4)[C@@H](C)C1 [Example 14, (S)-1-(4-Acryloyl-2-Methylpiperazin-1-yl)-10-Fluoro-4-(2-Isopropyl-4-Methylpyridine-3-yl)-11-Vinyl-4H-Isochromene[4,3-h] Quinazolin-3(6H)-One]	< 50	< 50			
C=CC(=O)N1CCN(c2nc(=O)n(-c3c(C)ccnc3C(C)C)c3c4c(c(C)cc23)-c2c(F)cccc2CO4)[C@@H](C)C1 [Example 15, (S)-1-(4-Acryloyl-2-Methylpiperazin-1-yl)-10-Fluoro-4-(2-Isopropyl-4-Methylpyridine-3-yl)-11-Methyl-4H-Isochromene[4,3-h] Quinazolin-3(6H)-One]	< 50	< 50			
C=CC(=O)N1CCN(c2nc(=O)n(-c3c(C)ccnc3C(C)C)c3c4c(c(C(F)(F)F)cc23)-c2c(F)cccc2CO4)[C@@H](C)C1 [Example 16, (S)-1-(4-Acryloyl-2-Methylpiperazin-1-yl)-10-Fluoro-4-(2-Isopropyl-4-Methylpyridine-3-yl)-11-(Trifluoromethyl)-4H-Isochromene[4,3-h] Quinazolin-3(6H)-One]	80.6	< 50			
C=CC(=O)N1CCN(c2nc(=O)n(-c3c(C)ccnc3C(C)C)c3c(F)c4c(cc23)OCc2ccc(F)c(F)c2-4)[C@@H](C)C1 [Example 17, (S)-8-(4-Acryloyl-2-Methylpiperazin-1-yl)-1,2,12-Trifluoro-11-(2-Isopropyl-4 -Methylpyridin-3-yl)-5H Isochromene[3,4-g] Quinazolin-10(11H)-One]			274	317	
C=CC(=O)N1CCN(c2nc(=O)n(-c3c(C)ccnc3C(C)C)c3c4c(c(Cl)cc23)-c2c(ccc(F)c2F)CO4)[C@@H](C)C1 [Example 18, (S)-1-(4-Acryloyl-2-Methylpiperazin-1-yl)-11-Chloro-9,10-Difluoro-4-(2-Isopropyl-4-Methylpyridin-3-yl)-4H-Isochromene[4,3-h] Quinazolin-3(6H)-One]			< 50	< 50	
C=CC(=O)N1CCN(c2nc(=O)n(-c3c(C)ccnc3C(C)C)c3c4c(c(Cl)cc23)-c2c(F)cccc2CCO4)[C@@H](C)C1 [Example 19, 10-((S)-4-Acryloyl-2-Methylpiperazin-1-yl)-8-Chloro-7-Fluoro-13-(2-Isopropyl-4-Methylpyridin-3-yl)-2,3-Dihydrobenzo[4,5]oxa[3,2-h]Quinazo1in-12(13H)-One]			< 50	< 50	
C=CC(=O)N1CCN(c2nc(=O)n(-c3c(C)ccnc3C(C)C)c3c4c(c(Cl)cc23)-c2cccnc2CO4)[C@@H](C)C1 [Example 20, (S)-7-(4-Acryloyl-2-Methylpiperazin-1-yl)-5-Chloro-10-(2-Isopropyl-4-Methylpyridine-3-yl)-10H Pyridin[3’,2’:4,5] Pyrano[3,2-h]Quinazolin-9(12H)-One]			62.6	64.2	
C=CC(=O)N1CCN(c2nc(=O)n(-c3c(C)ccnc3C(C)C)c3c4c(c(F)cc23)-c2c(ccc3ccccc23)CO4)[C@@H](C)C1 [Example 21, (S)-1-(4-Acryloyl-2-Methylpiperazin-1-yl)-13-Fluoro-4-(2-Isopropyl-4-Methylpyridine-3-yl)-4H-Benzo[5,6] Isochromene[4,3-h]Quinazolin-3(6H)-one]			690	1700	
C=CC(=O)N1CCN(c2nc(=O)n(-c3c(C)ccnc3C(C)C)c3c(F)c4c(cc23)OCc2ccc3ccccc3c2-4)[C@@H](C)C1 [Example 22, (S)-10-(4-Acryloyl-2-Methylpiperazin-1-yl)-14-Fluoro-13-(2-Isopropyl-4-Methylpyridine-3-yl)-7H-Benzo[5,6] Isochromene[3,4-g]Quinazolin-12(13H)-One]			3740	2500	
C=CC(=O)N1CCN(c2nc(=O)n(-c3c(C)ccnc3C(C)C)c3c4c(c(Cl)cc23)-c2cnccc2CO4)[C@@H](C)C1 [Example 23, (S)-1-(4-Acryloyl-2-Methylpiperazin-1-yl)-11-Chloro-4-(2-Isopropyl-4-Methylpyridine-3-yl)-4H-Pyridin[3’,4’:4,5]Pyrano[3.2-h]Quinazolin-3(6H)-One]			532	292	
